pIC50: −log10 of the molar value. Read-outs that look alike come from different tables or passages of the source.
Target: T1, Human complement C1s enzyme (Homo sapiens, UniProt P09871)
T1 construct: purified from human serum, Complement Technology, Inc; purchased Complement Technology, Inc; host or cells: human serum
T1 sequence (P09871 438-688 limits assumed): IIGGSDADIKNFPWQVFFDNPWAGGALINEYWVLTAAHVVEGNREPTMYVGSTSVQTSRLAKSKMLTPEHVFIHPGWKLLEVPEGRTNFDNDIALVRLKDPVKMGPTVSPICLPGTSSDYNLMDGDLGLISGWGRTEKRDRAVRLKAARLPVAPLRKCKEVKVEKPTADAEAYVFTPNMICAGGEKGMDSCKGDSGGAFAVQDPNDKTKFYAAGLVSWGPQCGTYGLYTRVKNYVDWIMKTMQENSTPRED
T1 sequence (P09871 16-437 partner limits assumed): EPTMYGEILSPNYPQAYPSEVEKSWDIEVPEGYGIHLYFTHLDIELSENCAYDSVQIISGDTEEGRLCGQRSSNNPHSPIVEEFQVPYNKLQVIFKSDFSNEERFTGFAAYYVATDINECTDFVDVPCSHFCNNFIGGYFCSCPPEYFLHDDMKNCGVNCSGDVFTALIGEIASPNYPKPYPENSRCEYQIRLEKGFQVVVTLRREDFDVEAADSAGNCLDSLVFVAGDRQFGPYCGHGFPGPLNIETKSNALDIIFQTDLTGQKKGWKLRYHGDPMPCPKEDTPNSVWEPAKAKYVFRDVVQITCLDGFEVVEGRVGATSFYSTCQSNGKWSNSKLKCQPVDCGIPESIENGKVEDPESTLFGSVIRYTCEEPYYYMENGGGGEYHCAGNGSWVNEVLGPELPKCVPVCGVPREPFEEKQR
Experiment: Human C1s Enzyme Assay
Type: biochemical
Method: The assay of Example 3 was used to determine the IC50's of the compounds. Other standard complement assays are also available.
Example 3. Human C1s Enzyme Assay
Human complement C1s enzyme (purified from human serum, Complement Technology, Inc.) at 1.16 nM final concentration was incubated with test compound at various concentrations for 5 min at room temperature in 50 mM Tris, 1 M NaCl, pH 7.5. A synthetic substrate Z-L-Lys-SBzl and DTNB (Ellman's reagent) were added to final concentrations of 100 μM each. Absorbance at 405 nm (A405) was recorded at 30 second intervals for 30 min using a microplate spectrophotometer. IC50 values were calculated by nonlinear regression of complement C1s reaction rates as a function of test compound concentration.

[1] = human C1s 1.16 nM, 5 min preincubation, substrate Z-L-Lys-SBzl 100 μM, A405; read-out: C1s Protease Activity

| Compound | pIC50 [1] | pIC50 (read-out: C1s Protease Activity; human C1s 1.16 nM, 5 min preincubation, substrate Z-L-Lys-SBzl 100 μM, A405) |
| --- | --- | --- |
| N=C(N)c1csc(CNC(=O)[C@@H]2C[C@@H](OC(F)F)CN2C(=O)CNC(=O)CCCOc2ccccc2)c1 [Compound 29, (2S,4R)-N-((4-carbamimidoylthiophen-2-yl)methyl)-4-(difluoromethoxy)-1-((4-phenoxybutanoyl)glycyl)pyrrolidine-2-carboxamide] | > 7.00 | – |
| N=C(N)c1csc(CNC(=O)C23CCC(CC2)N3C(=O)CNC(=O)CCCOc2ccccc2)c1 [Compound 30, N-((4-carbamimidoylthiophen-2-yl)methyl)-7-((4-phenoxybutanoyl)glycyl)-7-azabicyclo[2.2.1]heptane-1-carboxamide] | – | > 7.00 |
| CO/C(=N/C#N)c1csc(CNC(=O)[C@@H]2C[C@]3(C)C[C@@H]3N2C(=O)CNC(=O)c2ccc(Oc3ccccc3)cc2)c1 [Compound 31, methyl (E)-N-cyano-5-(((1S,3S,5S)-5-methyl-2-((4-phenoxybenzoyl)glycyl)-2-azabicyclo[3.1.0]hexane-3-carboxamido)methyl)thiophene-3-carbimidate] | < 6.00 | – |
| COC(=N)c1csc(CNC(=O)[C@@H]2C[C@]3(C)C[C@@H]3N2C(=O)CNC(=O)c2ccc(Oc3ccccc3)cc2)c1 [Compound 32, methyl 5-(((1S,3S,5S)-5-methyl-2-((4-phenoxybenzoyl)glycyl)-2-azabicyclo[3.1.0]-hexane-3-carboxamido)methyl)thiophene-3-carbimidate] | 6.00 to 7.00 | – |
| N=C(N)c1csc(CNC(=O)[C@@H]2C[C@](F)(CF)CN2C(=O)CNC(=O)CCCOc2ccccc2)c1 [Compound 33, (2S,4R)-N-((4-carbamimidoylthiophen-2-yl)methyl)-4-fluoro-4-(fluoromethyl)-1-((4-phenoxybutanoyl)glycyl)pyrrolidine-2-carboxamide] | > 7.00 | – |
| C[C@@]12C[C@@H]1N(C(=O)CNC(=O)c1ccc(Oc3ccccc3)cc1)[C@H](C(=O)NCc1cc(-c3noc(=O)[nH]3)cs1)C2 [Compound 34, (1S,3S,5S)-5-methyl-N-((4-(5-oxo-4,5-dihydro-1,2,4-oxadiazol-3-yl)thiophen-2-yl)methyl)-2-((4-phenoxybenzoyl)glycyl)-2-azabicyclo[3.1.0]hexane-3-carboxamide] | < 6.00 | – |
| N=C(N)c1csc(CNC(=O)[C@@H]2C[C@H](OC(F)F)CN2C(=O)CNC(=O)c2ccc(Oc3ccccc3)cc2)c1 [Compound 36, (2S,4S)-N-((4-carbamimidoylthiophen-2-yl)methyl)-4-(difluoromethoxy)-1-((4-phenoxybenzoyl)glycyl)pyrrolidine-2-carboxamide] | > 7.00 | – |
| C[C@@]12C[C@@H]1N(C(=O)CNC(=O)c1ccc(Oc3ccccc3)cc1)[C@H](C(=O)NCc1cc(C3=NCCN3)cs1)C2 [Compound 37, (1S,3S,5S)-N-((4-(4,5-dihydro-1H-imidazol-2-yl)thiophen-2-yl)methyl)-5-methyl-2-((4-phenoxybenzoyl)glycyl)-2-azabicyclo[3.1.0]hexane-3-carboxamide] | < 6.00 | – |
| C[C@@]12C[C@@H]1N(C(=O)CNC(=O)c1ccc(Oc3ccccc3)cc1)[C@H](C(=O)NCc1cc(-c3ncc[nH]3)cs1)C2 [Compound 38, (1S,3S,5S)-N-((4-(1H-imidazol-2-yl)thiophen-2-yl)methyl)-5-methyl-2-((4-phenoxybenzoyl)glycyl)-2-azabicyclo[3.1.0]hexane-3-carboxamide] | > 7.00 | – |
| CC(=O)ONC(=N)c1csc(CNC(=O)[C@@H]2C[C@]3(C)C[C@@H]3N2C(=O)CNC(=O)c2ccc(Oc3ccccc3)cc2)c1 [Compound 39, (1S,3S,5S)-N-((4-(N-acetoxycarbamimidoyl)thiophen-2-yl)methyl)-5-methyl-2-((4-phenoxybenzoyl)glycyl)-2-azabicyclo[3.1.0]hexane-3-carboxamide] | 6.00 to 7.00 | – |
| N=C(N)c1csc(NC(=O)C[C@@H]2CCCN2C(=O)CNC(=O)c2ccc(Oc3ccccc3)cc2)c1 [Compound 40, N-{2-[(2S)-2-{[(4-carbamimidoylthiophen-2-yl)carbamoyl]methyl}pyrrolidin-1-yl]-2-oxoethyl}-4-phenoxybenzamide] | < 6.00 | – |
| C[C@@]12C[C@@H]1N(C(=O)CNC(=O)c1ccc(Oc3ccccc3)cc1)[C@H](C(=O)NC1(c3cc(C(=N)N)cs3)CC1)C2 [Compound 41, (1S,3S,5S)-N-(1-(4-carbamimidoylthiophen-2-yl)cyclopropyl)-5-methyl-2-((4-phenoxybenzoyl)glycyl)-2-azabicyclo[3.1.0]hexane-3-carboxamide] | > 7.00 | – |
| COc1cccc(CNC(=O)[C@@H]2C[C@]3(C)C[C@@H]3N2C(=O)CNC(=O)c2ccc(Oc3ccccc3)cc2)c1 [Compound 42, (1S,3S,5S)-N-(3-methoxybenzyl)-5-methyl-2-((4-phenoxybenzoyl)-glycyl)-2-azabicyclo[3.1.0]hexane-3-carboxamide] | < 6.00 | – |
| COc1ccc(CNC(=O)[C@@H]2C[C@]3(C)C[C@@H]3N2C(=O)CNC(=O)c2ccc(Oc3ccccc3)cc2)cc1 [Compound 43, (1S,3S,5S)-N-(4-methoxybenzyl)-5-methyl-2-((4-phenoxy-benzoyl)-glycyl)-2-azabicyclo[3.1.0]hexane-3-carboxamide] | < 6.00 | – |
| C[C@@]12C[C@@H]1N(C(=O)CNC(=O)CCCOc1ccccc1)[C@H](C(=O)NCc1cc(C(=N)N)cs1)C2 [Compound 44, (1S,3S,5S)-N-((4-carbamimidoylthiophen-2-yl)methyl)-5-methyl-2-((4-phenoxy-butanoyl)glycyl)-2-azabicyclo[3.1.0]hexane-3-carboxamide] | > 7.00 | – |
| CS[C@@H]1C[C@@H](C(=O)NCc2cc(C(=N)N)cs2)N(C(=O)CNC(=O)c2ccc(Oc3ccccc3)cc2)C1 [Compound 45, (2S,4R)-N-((4-carbamimidoylthiophen-2-yl)methyl)-4-(methylthio)-1-((4-phenoxy-benzoyl)glycyl)pyrrolidine-2-carboxamide] | > 7.00 | – |
| CS(=O)(=O)[C@@H]1C[C@@H](C(=O)NCc2cc(C(=N)N)cs2)N(C(=O)CNC(=O)c2ccc(Oc3ccccc3)cc2)C1 [Compound 46, (2S,4R)-N-((4-carbamimidoylthiophen-2-yl)methyl)-4-(methylsulfonyl)-1-((4-phenoxybenzoyl)glycyl)pyrrolidine-2-carboxamide] | > 7.00 | – |
| N=C(N)c1csc(CNC(=O)[C@@H]2C[C@@H](N3CCCC3)CN2C(=O)CNC(=O)c2ccc(Oc3ccccc3)cc2)c1 [Compound 48, (3′R,5'S)-N-((4-carbamimidoylthiophen-2-yl)methyl)-1′-((4-phenoxybenzoyl)glycyl)-[1,3′-bipyrrolidine]-5′-carboxamide] | > 7.00 | – |
| N=C(N)c1csc(CNC(=O)[C@@H]2C[C@@H](OCC3CC3)CN2C(=O)CNC(=O)c2ccc(Oc3ccccc3)cc2)c1 [Compound 50, (2S,4R)-N-((4-carbamimidoylthiophen-2-yl)methyl)-4-(cyclopropylmethoxy)-1-((4-phenoxybenzoyl)glycyl)pyrrolidine-2-carboxamide] | > 7.00 | – |
| N=C(N)c1csc(CNC(=O)[C@@H]2C[C@H](C(F)F)CN2C(=O)CNC(=O)c2ccc(Oc3ccccc3)cc2)c1 [Compound 51, (2S,4S)-N-((4-carbamimidoylthiophen-2-yl)methyl)-4-(difluoromethyl)-1-((4-phenoxybenzoyl)glycyl)pyrrolidine-2-carboxamide] | > 7.00 | – |
| C[C@@]12C[C@@H]1N(C(=O)CNC(=O)c1ccc(Oc3ccccc3)cc1)[C@H](C(=O)NCCc1cc(C(=N)N)cs1)C2 [Compound 52, (1S,3S,5S)-N-(2-(4-carbamimidoylthiophen-2-yl)ethyl)-5-methyl-2-((4-phenoxy-benzoyl)glycyl)-2-azabicyclo[3.1.0]hexane-3-carboxamide] | > 7.00 | – |
| C[C@@]12C[C@@H]1N(C(=O)CNC(=O)c1ccc(Oc3ccc(P(C)(=O)O)cc3)cc1)[C@H](C(=O)NCc1cc(C(=N)N)cs1)C2 [Compound 53, (4-(4-((2-((1S,3S,5S)-3-(((4-carbamimidoylthiophen-2-yl)methyl)carbamoyl)-5-methyl-2-azabicyclo[3.1.0]hexan-2-yl)-2-oxoethyl)carbamoyl)phenoxy)phenyl)-(methyl)phosphinic acid] | 6.00 to 7.00 | – |
| N=C(N)c1csc(CNC(=O)[C@@H]2C[C@@H](C3CCCC3)CN2C(=O)CNC(=O)c2ccc(Oc3ccccc3)cc2)c1 [Compound 54, (2S,4S)-N-((4-carbamimidoylthiophen-2-yl)methyl)-4-cyclopentyl-1-((4-phenoxy-benzoyl)glycyl)pyrrolidine-2-carboxamide] | > 7.00 | – |

— patent US20250171423A1, “PHARMACEUTICAL COMPOUNDS FOR THE TREATMENT OF COMPLEMENT MEDIATED DISORDERS” (Achillion Pharmaceuticals, Inc., priority 2020, published 2025)
